Measured values published in patent US11826351B2, “Compounds useful as kinase inhibitors” (Loxo Oncology, Inc., priority 2015, dated 2023).
Like-named read-outs stand apart in the source and are kept apart here.

Tests used:
[1] = test system: OCI-Ly10 human DLBCL cells; test: OCI-Ly10 anti-proliferative activity (Resazurin); format: cell-based; settings: OCI-Ly10 cells, 72 h compound treatment, Resazurin, read-out: Proliferation Assay OCI-Ly10-20% FBS
Protocol: Compounds were assayed for effects on the growth of OCI-Ly10 human DLBCL cells that are dependent on NFκB signalling. […] Cells were then plated at 7.5×10^3 cells per well in 96-well plates in varying concentrations of compound and incubated for 72 h at 37° C. An additional plate of cells to be used as the Day 0 read was seeded without compound addition, Resazurin was added to each well, incubated for 5 h and the fluorescence measured at 590 nm. After 72 h of compound treatment, Resazurin was added to each well of the compound treated plates, incubated for 5 h and the fluorescence measured at 590 nm. The IC50 was then calculated by subtracting the average Day 0 value from each well value from the treated plates, each treatment was then calculated as a percentage of the DMSO control and the percentages plotted against the inhibitor concentration to estimate the IC50 from log[Inhibitor] vs response using the Variable Slope model in Graphpad prism from Graphpad software (San Diego, Calif.).

[2] = biological target: T1, Recombinant BTK^WT kinase (Homo sapiens, UniProt Q06187); test: BTK WT binding affinity (LanthaScreen TR-FRET); settings: Kinase Tracer 236, 5 h incubation
T1 construct: purchased Invitrogen
Protocol: BTK^WT binding affinity of each compound tested was determined using a time-resolved fluorescence resonance energy transfer (TR-FRET) methodology. 2.5 nM Recombinant BTK^WT kinase, varying concentrations of inhibitor, 2 nM LanthaScreen™ Eu anti-His Antibody and 15 nM Kinase Tracer 236 was incubated in 1× LanthaScreen™ Kinase Buffer A for 5 h. Recombinant BTK kinase and all LanthaScreen™ components were purchased from Invitrogen. Measurements were performed in a reaction volume of 30 μL using half-area 96-well assay plates. The TR-FRET signal was read on a plate reader with an excitation wavelength of 340 nm and detection wavelengths of 615 and 665 nm. Binding affinity was determined for each compound by measuring TR-FRET signal at various concentrations of compound and plotting the relative fluorescence units against the inhibitor concentration to estimate the IC50 from log[Inhibitor] vs response using the Variable Slope model in Graphpad prism from Graphpad software (San Diego, Calif.).

Recombinant EGFR = biological target: T2, Recombinant EGFR (Homo sapiens, UniProt P00533); test: EGFR binding affinity (LanthaScreen TR-FRET); settings: Kinase Tracer 199, 5 h incubation
T2 construct: purchased Invitrogen
Protocol: EGFR binding affinity was determined using a time-resolved fluorescence resonance energy transfer (TR-FRET) methodology. […] Recombinant EGFR and all LanthaScreen™ components were purchased from Invitrogen. Measurements were performed in a reaction volume of 30 μL using half-area 96-well assay plates. […] Binding affinity was determined for each compound by measuring TR-FRET signal at various concentrations of compound and plotting the relative fluorescence units against the inhibitor concentration to estimate the IC50 from log[Inhibitor] vs response using the Variable Slope model in Graphpad prism from Graphpad software (San Diego, Calif.).

[3] = biological target: T3, Recombinant BTK^C481S kinase (Homo sapiens, UniProt Q06187, C481S); test: BTK C481S binding affinity (LanthaScreen TR-FRET); settings: Kinase Tracer 236, 5 h incubation
T3 construct: purchased SignalChem
Protocol: BTK^C481S binding affinity of each compound tested was determined using a time-resolved fluorescence resonance energy transfer (TR-FRET) methodology. 5 nM Recombinant BTK^WT kinase, varying concentrations of inhibitor, 2 nM LanthaScreen™ Eu anti-His Antibody and 30 nM Kinase Tracer 236 was incubated in 1× LanthaScreen™ Kinase Buffer A for 5 h. Recombinant BTK^C481S kinase was purchased from SignalChem and all LanthaScreen™ components were purchased from Invitrogen. Measurements were performed in a reaction volume of 30 μL using half-area 96-well assay plates. The TR-FRET signal was read on a plate reader with an excitation wavelength of 340 nm and detection wavelengths of 615 and 665 nm. Binding affinity was determined for each compound by measuring TR-FRET signal at various concentrations of compound and plotting the relative fluorescence units against the inhibitor concentration to estimate the IC50 from log[Inhibitor] vs response using the Variable Slope model in Graphpad prism from Graphpad software (San Diego, Calif.).

T3 sequence (Q06187 whole entry C481S): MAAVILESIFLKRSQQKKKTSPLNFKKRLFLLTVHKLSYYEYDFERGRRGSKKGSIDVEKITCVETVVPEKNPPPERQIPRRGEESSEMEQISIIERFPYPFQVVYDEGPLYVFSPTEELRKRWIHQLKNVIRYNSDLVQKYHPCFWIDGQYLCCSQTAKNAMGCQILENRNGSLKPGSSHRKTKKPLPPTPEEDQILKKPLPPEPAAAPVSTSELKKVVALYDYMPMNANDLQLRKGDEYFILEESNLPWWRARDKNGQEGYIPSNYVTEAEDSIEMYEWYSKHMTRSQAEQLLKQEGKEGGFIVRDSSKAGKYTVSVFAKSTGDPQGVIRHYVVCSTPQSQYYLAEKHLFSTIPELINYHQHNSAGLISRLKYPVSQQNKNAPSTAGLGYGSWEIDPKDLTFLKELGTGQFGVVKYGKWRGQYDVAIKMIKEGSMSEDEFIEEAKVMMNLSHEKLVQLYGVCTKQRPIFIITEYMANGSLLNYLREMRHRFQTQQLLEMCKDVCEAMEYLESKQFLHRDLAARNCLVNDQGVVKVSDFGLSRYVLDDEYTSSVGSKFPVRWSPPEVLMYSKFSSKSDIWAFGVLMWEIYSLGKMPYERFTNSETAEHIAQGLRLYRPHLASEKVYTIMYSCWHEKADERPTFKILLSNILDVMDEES
T2 sequence (P00533 25-1210): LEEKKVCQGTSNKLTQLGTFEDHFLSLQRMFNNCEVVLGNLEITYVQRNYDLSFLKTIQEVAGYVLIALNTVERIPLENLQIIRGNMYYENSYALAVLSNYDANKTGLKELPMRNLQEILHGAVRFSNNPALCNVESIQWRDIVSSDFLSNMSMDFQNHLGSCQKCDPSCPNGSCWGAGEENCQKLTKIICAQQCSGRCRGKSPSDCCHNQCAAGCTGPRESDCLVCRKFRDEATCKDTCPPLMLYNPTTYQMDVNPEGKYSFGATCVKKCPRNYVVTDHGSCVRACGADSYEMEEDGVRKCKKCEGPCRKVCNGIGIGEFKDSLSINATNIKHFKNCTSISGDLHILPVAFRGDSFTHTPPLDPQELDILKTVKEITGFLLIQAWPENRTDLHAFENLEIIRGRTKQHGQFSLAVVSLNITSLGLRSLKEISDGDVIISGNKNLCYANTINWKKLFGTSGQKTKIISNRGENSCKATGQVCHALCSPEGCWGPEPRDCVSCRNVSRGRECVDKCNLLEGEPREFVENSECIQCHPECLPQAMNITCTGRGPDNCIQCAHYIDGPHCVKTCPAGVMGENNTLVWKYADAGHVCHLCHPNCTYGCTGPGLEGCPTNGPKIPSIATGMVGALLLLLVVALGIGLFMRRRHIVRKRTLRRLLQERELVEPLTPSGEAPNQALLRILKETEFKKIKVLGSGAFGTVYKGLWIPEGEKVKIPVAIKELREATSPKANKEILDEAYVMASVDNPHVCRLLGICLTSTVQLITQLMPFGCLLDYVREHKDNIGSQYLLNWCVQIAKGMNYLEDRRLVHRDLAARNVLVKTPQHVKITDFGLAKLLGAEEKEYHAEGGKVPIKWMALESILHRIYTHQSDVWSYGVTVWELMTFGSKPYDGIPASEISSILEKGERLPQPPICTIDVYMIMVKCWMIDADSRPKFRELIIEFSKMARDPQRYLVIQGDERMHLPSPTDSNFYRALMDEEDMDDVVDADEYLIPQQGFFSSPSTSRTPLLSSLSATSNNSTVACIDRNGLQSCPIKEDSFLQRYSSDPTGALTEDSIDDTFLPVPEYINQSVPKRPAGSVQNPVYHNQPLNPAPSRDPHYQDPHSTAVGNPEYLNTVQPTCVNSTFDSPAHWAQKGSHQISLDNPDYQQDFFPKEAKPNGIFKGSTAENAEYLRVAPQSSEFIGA
T1 sequence (Q06187 whole entry): as the sequence (Q06187 whole entry C481S) above, with S481C counted along it

IC50 ([1]; Homo sapiens, OCI-Ly10, 72 h)	IC50 [2]	IC50 (Recombinant EGFR)	IC50 [3]	IC50 [1]	Compound
10 to 100 nM	< 10 nM	100 to 1000 nM	< 10 nM	–	COc1ccccc1C(=O)NCc1ccc(-c2nn(C(C)(C)C)c(N)c2C(N)=O)cc1 [Example 3, 5-amino-1-tert-butyl-3-[4-[[(2-methoxybenzoyl)amino]methyl]phenyl]pyrazole-4-carboxamide]
10 to 100 nM	< 10 nM	100 to 1000 nM	< 10 nM	–	COc1ccccc1C(=O)NCc1ccc(-c2nn(C3CCC(C)C3)c(N)c2C(N)=O)cc1 (stereo not shown) [Example 5, 5-Amino-3-[4-[[(2-methoxybenzoyl)amino]methyl]phenyl]-1-(3-methylcyclopentyl)pyrazole-4-carboxamide]
100 to 1000 nM	10 to 100 nM	> 10000 nM	< 10 nM	–	COc1ccccc1C(=O)NCc1ccc(-c2nn(-c3ccc(C(F)(F)F)cn3)c(N)c2C(N)=O)cc1 [Example 6, 5-Amino-3-[4-[[(2-methoxybenzoyl)amino]methyl]phenyl]-1-[5-(trifluoromethyl)-2-pyridyl]pyrazole-4-carboxamide]
100 to 1000 nM	10 to 100 nM	1000 to 10000 nM	10 to 100 nM	–	COc1ccccc1C(=O)NCc1ccc(-c2nn(CCN3CCOCC3)c(N)c2C(N)=O)cc1 [Example 9, 5-Amino-3-[4-[[(2-methoxybenzoyl)amino]methyl]phenyl]-1-(2-morpholinoethyl)pyrazole-4-carboxamide]
100 to 1000 nM	10 to 100 nM	1000 to 10000 nM	10 to 100 nM	–	COc1ccccc1C(=O)NCc1ccc(-c2nn(CC(=O)C(C)(C)C)c(N)c2C(N)=O)cc1 [Example 10, 5-Amino-1-(3,3-dimethyl-2-oxo-butyl)-3-[4-[[(2-methoxybenzoyl)amino]methyl]phenyl]pyrazole-4-carboxamide]
1000 to 10000 nM	10 to 100 nM	1000 to 10000 nM	10 to 100 nM	–	COc1ccccc1C(=O)NCc1ccc(-c2nn(CCC#N)c(N)c2C(N)=O)cc1 [Example 11, 5-Amino-1-(2-cyanoethyl)-3-[4-[[(2-methoxybenzoyl)amino]methyl]phenyl]pyrazole-4-carboxamide]
1000 to 10000 nM	100 to 1000 nM	> 10000 nM	100 to 1000 nM	–	COc1ccccc1C(=O)NCc1ccc(-c2nn(C3CCCC(=O)C3)c(N)c2C(N)=O)cc1 (stereo not shown) [Example 12, 5-amino-3-[4-[[(2-methoxybenzoyl)amino]methyl]phenyl]-1-(3-oxocyclohexyl)pyrazole-4-carboxamide]
100 to 1000 nM	10 to 100 nM	1000 to 10000 nM	10 to 100 nM	–	COc1ccccc1C(=O)NCc1ccc(-c2nn(CC(O)C(C)(C)C)c(N)c2C(N)=O)cc1 (stereo not shown) [Example 14, 5-Amino-1-(2-hydroxy-3,3-dimethyl-butyl)-3-[4-[[(2-methoxybenzoyl)amino]methyl]phenyl]pyrazole-4-carboxamide]
10 to 100 nM	< 10 nM	1000 to 10000 nM	< 10 nM	–	COc1ccccc1C(=O)NCc1ccc(-c2nn(-c3ccc(F)cc3F)c(N)c2C(N)=O)cc1 [Example 15, 5-Amino-1-(2,4-difluorophenyl)-3-[4-[[(2-methoxybenzoyl)amino]methyl]phenyl]pyrazole-4-carboxamide]
10 to 100 nM	< 10 nM	100 to 1000 nM	< 10 nM	–	COc1ccccc1C(=O)NCc1ccc(-c2nn(CC3CCCCC3)c(N)c2C(N)=O)cc1 [Example 17, 5-amino-1-(cyclohexylmethyl)-3-[4-[[(2-methoxybenzoyl)amino]methyl]phenyl]pyrazole-4-carboxamide]
10 to 100 nM	< 10 nM	1000 to 10000 nM	< 10 nM	–	COc1ccccc1C(=O)NCc1ccc(-c2nn(-c3ccccc3)c(N)c2C(N)=O)cc1 [Example 22, 5-Amino-3-[4-[[(2-methoxybenzoyl)amino]methyl]phenyl]-1-phenyl-pyrazole-4-carboxamide]
10 to 100 nM	< 10 nM	100 to 1000 nM	< 10 nM	–	COc1ccccc1C(=O)NCc1ccc(-c2nn([C@@H]3CCc4ccccc43)c(N)c2C(N)=O)cc1 [Example 23, 5-Amino-1-[(1R)-indan-1-yl]-3-[4-[[(2-methoxybenzoyl)amino]methyl]phenyl]pyrazole-4-carboxamide]

Further lines, the compound ahead of its results:

Compound	IC50 ([1]; Homo sapiens, OCI-Ly10, 72 h)	IC50 [2]	IC50 (Recombinant EGFR)	IC50 [3]	IC50 [1]
COc1ccccc1C(=O)NCc1ccc(-c2nn(C3CCCC3)c(N)c2C(N)=O)cc1 [Example 1, 5-amino-1-cyclopentyl-3-[4-[[(2-methoxybenzoyl)amino]methyl]phenyl]pyrazole-4-carboxamide]	< 10 nM	< 10 nM	100 to 1000 nM	< 10 nM	–
COc1ccccc1C(=O)NCc1ccc(-c2nn(C3C[C@@H]4C[C@@H]4C3)c(N)c2C(N)=O)cc1 (stereo partly shown) [Example 4, 5-Amino-1-(3-bicyclo[3.1.0]hexanyl)-3-[4-[[(2-methoxybenzoyl)amino]methyl]phenyl]pyrazole-4-carboxamide]	< 10 nM	< 10 nM	100 to 1000 nM	< 10 nM	–
COCOCCn1nc(-c2ccc(CNC(=O)c3ccccc3OC)cc2)c(C(N)=O)c1N [Example 7, 5-amino-3-[4-[[(2-methoxybenzoyl)amino]methyl]phenyl]-1-[2-(methoxymethoxy)ethyl]pyrazole-4-carboxamide]	100 to 1000 nM	100 to 1000 nM	> 10000 nM	10 to 100 nM	–
COc1ccccc1C(=O)NCc1ccc(-c2nn(CC3(C)COC3)c(N)c2C(N)=O)cc1 [Example 8, 5-amino-3-[4-[[(2-methoxybenzoyl)amino]methyl]phenyl]-1-[(3-methyloxetan-3-yl)methyl]pyrazole-4-carboxamide]	100 to 1000 nM	100 to 1000 nM	> 10000 nM	10 to 100 nM	–
COc1ccccc1C(=O)NCc1ccc(-c2nn(C3CCC(=O)C3)c(N)c2C(N)=O)cc1 (stereo not shown) [Example 13, 5-Amino-3-[4-[[(2-methoxybenzoyl)amino]methyl]phenyl]-1-(3-oxocyclopentyl)pyrazole-4-carboxamide]	100 to 1000 nM	< 10 nM	1000 to 10000 nM	< 10 nM	–
COc1ccccc1C(=O)NCc1ccc(-c2nn(-c3cccc(C(F)(F)F)c3)c(N)c2C(N)=O)cc1 [Example 16, 5-Amino-3-[4-[[(2-methoxybenzoyl)amino]methyl]phenyl]-1-[3-(trifluoromethyl)phenyl]pyrazole-4-carboxamide]	100 to 1000 nM	10 to 100 nM	1000 to 10000 nM	< 10 nM	–
COc1ccccc1C(=O)NCc1ccc(-c2nn(C3CCCCC3)c(N)c2C(N)=O)cc1 [Example 18, 5-amino-1-cyclohexyl-3-[4-[[(2-methoxybenzoyl)amino]methyl]phenyl]pyrazole-4-carboxamide]	< 10 nM	< 10 nM	100 to 1000 nM	< 10 nM	10 to 100 nM
COc1ccccc1C(=O)NCc1ccc(-c2nn(C(C)C)c(N)c2C(N)=O)cc1 [Example 19, 5-amino-1-isopropyl-3-[4-[[(2-methoxybenzoyl)amino]methyl]phenyl]pyrazole-4-carboxamide]	10 to 100 nM	< 10 nM	100 to 1000 nM	< 10 nM	–
COc1ccccc1C(=O)NCc1ccc(-c2nn(CC(F)(F)F)c(N)c2C(N)=O)cc1 [Example 21, 5-Amino-3-[4-[[(2-methoxybenzoyl)amino]methyl]phenyl]-1-(2,2,2-trifluoroethyl)pyrazole-4-carboxamide]	100 to 1000 nM	< 10 nM	100 to 1000 nM	< 10 nM	–
